{
  "source": "patent US20090062130A1",
  "about": "“NUCLEOSOME-BASED BIOSENSOR” (UNIVERSITY OF PITTSBURGH - OF THE COMMONWEALTH SYSTEM OF …, priority 2006, published 2009)",
  "key": {"[1]": {"system": "ER", "sequence (P03372 whole entry)": "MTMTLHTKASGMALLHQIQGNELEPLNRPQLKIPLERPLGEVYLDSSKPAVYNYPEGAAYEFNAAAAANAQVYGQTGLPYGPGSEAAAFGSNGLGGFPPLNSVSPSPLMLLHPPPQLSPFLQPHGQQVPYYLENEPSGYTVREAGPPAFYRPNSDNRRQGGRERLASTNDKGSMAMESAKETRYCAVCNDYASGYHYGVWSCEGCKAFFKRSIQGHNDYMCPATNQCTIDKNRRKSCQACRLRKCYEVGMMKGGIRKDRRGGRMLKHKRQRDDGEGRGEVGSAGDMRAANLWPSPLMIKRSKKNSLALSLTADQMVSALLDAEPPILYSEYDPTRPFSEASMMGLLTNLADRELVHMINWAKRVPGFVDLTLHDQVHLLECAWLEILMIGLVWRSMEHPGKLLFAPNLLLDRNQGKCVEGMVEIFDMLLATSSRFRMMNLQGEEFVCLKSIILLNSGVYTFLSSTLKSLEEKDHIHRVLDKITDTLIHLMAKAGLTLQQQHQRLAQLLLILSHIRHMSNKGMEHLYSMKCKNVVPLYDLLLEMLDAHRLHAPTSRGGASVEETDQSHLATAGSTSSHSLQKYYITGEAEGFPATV", "conditions": "ligand plus estrogen receptor plus Brg1 complex", "description": "To reconstitute specific chromatin remodeling in vitro, one would co-incubate wild type or mutant ERE-containing nucleosomes with E2/ER or ICI/ER as in D2.2a. Equimolar Brg1, obtainable from Jena Biosciences (Dortmund, Germany), would be added and measurement would be made of the FRET loss that is specific to wt ERE-containing nucleosomes in a buffer of 12 mM HEPES, pH 7.9, 60 mM KCl, 15% glycerol, catalase, 10 mM DTT, 2 mM MgCl2, 4 mM ATP, 0.4% (w/v) glucose, 0.1 mg/ml glucose oxidase, and 0.02 mg/ml catalase. In the absence of measurable FRET loss, Flag-tagged BAF57, BAF155 and BAF170 could 1 be added in a 2:1 ratio, relative to Brg1, in keeping with observations in publication 69. Ligand-dependent measurement of FRET loss would be monitored.\nThe remodeling reaction is expected to be ATP-dependent. This would be tested by ATP deletion in relation to incubation conditions that had decreased FRET. Also, initial validation of reagents would be effected done through measurement of micrococcal nuclease sensitivity of the mononucleosome bound DNA."}, "[2]": {"system": "ER", "conditions": "recombinant protein system, equimolar estrogen, ICI, tamoxifen, cholesterol", "from_the_text": "Use of a recombinant protein system would be preferred to use of cell extracts in this context. A recombinant protein system would facilitate modulation of component stoichiometries."}},
  "data": [
    {"compound": "CC(C)CCC[C@@H](C)[C@H]1CC[C@H]2[C@@H]3CC=C4C[C@@H](O)CC[C@]4(C)[C@H]3CC[C@]12C", "note": "[cholesterol]", "values": [
      {"measurement": "loss of FRET signal", "setting": "[1]", "result": "negative controls"},
      {"measurement": "distribution of ligand into sorted pools", "setting": "[2]", "result": "would not be carried forward through the sort"}
    ]},
    {"compound": "Vitamin D3", "values": [
      {"measurement": "loss of FRET signal", "setting": "[1]", "result": "negative controls"}
    ]},
    {"compound": "C[C@]12CC[C@@H]3c4ccc(O)cc4C[C@@H](CCCCCCCCC[S+]([O-])CCCC(F)(F)C(F)(F)F)[C@H]3[C@@H]1CC[C@@H]2O", "note": "(stereo partly shown) [ICI, ICI182780]", "values": [
      {"measurement": "loss of FRET signal", "setting": "[1]", "result": "negative controls"}
    ]}
  ]
}
